Legend:
[1] = molecular target: 4-aminobutyrate aminotransferase, mitochondrial (Rattus norvegicus) (UniProt P50554); experiment: In vitro percentage inhibition activity against GABA-T enzyme at a concentration of 0.625 uM after 4.5 h
[2] = test system: Mus musculus; experiment: Minimum dose required for anticonvulsant activity when given i.p., at 0.5 hr in mice upon neurotoxicity seizure using rotarod test; assay type: functional
[3] = test system: Mus musculus; experiment: Minimum dose required for anticonvulsant activity when given i.p., at 4 hr in mice upon maximal electroshock seizure; assay type: functional
[4] = test system: Rattus norvegicus; experiment: Toxic dose observed for anticonvulsant activity when given i.p., at 0.5 hr in rat upon neurotoxicity seizure; assay type: functional; conditions: ip
[5] = test system: Rattus norvegicus; experiment: Number of rats protected at a dose of 30 mg/Kg when given oral at 2 hr upon maximal electroshock seizure; Total number of rats = 4; assay type: functional
[6] = test system: Mus musculus; experiment: Minimum dose required for anticonvulsant activity when given i.p., at 0.5 hr in mice upon maximal electroshock seizure; assay type: functional
[7] = molecular target: 4-aminobutyrate aminotransferase, mitochondrial (Rattus norvegicus) (UniProt P50554); experiment: In vitro percentage inhibition activity against GABA-T enzyme at a concentration of 0.625 uM after 6 h
[8] = test system: Rattus norvegicus; experiment: Effect on GABA level in rat whole brain concentration after 2 hr post-treatment at a dose of 100 mg/Kg when given i.p.; Control 48.4; assay type: functional
[9] = test system: Rattus norvegicus; experiment: Number of rats protected at a dose of 30 mg/Kg when given oral at 0.5 hr upon maximal electroshock seizure; Total number of rats = 4; assay type: functional
[10] = test system: Rattus norvegicus; experiment: Effective dose required for anticonvulsant activity when given i.p., at 0.5 hr in rat upon maximal electroshock seizure; assay type: functional; conditions: ip
[11] = species on record: Rattus norvegicus; experiment: Ex vitro percentage inhibition activity against GABA-T enzyme at a concentration of 1.25 uM after 4.5 h; assay type: functional
[12] = test system: Rattus norvegicus; experiment: Number of rats protected at a dose of 30 mg/Kg when given oral at 4 hr upon maximal electroshock seizure; Total number of rats = 4; assay type: functional
[13] = test system: Rattus norvegicus; experiment: Number of rats protected at a dose of 30 mg/Kg when given oral at 0.25 hr upon maximal electroshock seizure; Total number of rats = 4; assay type: functional
[14] = test system: Mus musculus; experiment: Post treatment immobility time for CNS study using Porsolt's swimpool test at a dose of 100 mg/Kg after 1 hr when given i.p., in mice (No. of animals 6); Control (24h before) 132
[15] = molecular target: 4-aminobutyrate aminotransferase, mitochondrial (Rattus norvegicus) (UniProt P50554); experiment: In vitro percentage inhibition activity against GABA-T enzyme at a concentration of 0.625 uM after 3 h
[16] = species on record: Rattus norvegicus; experiment: Protective index between effective dose and toxic dose in rat; assay type: functional
[17] = test system: Rattus norvegicus; experiment: Number of rats protected at a dose of 30 mg/Kg when given oral at 1 hr upon maximal electroshock seizure; Total number of rats = 4; assay type: functional
[18] = test system: Mus musculus; experiment: Minimum dose required for anticonvulsant activity when given i.p., at 0.5 hr in mice upon subcutaneous strychnine seizure; assay type: functional
[19] = test system: Mus musculus; experiment: Minimum dose required for anticonvulsant activity when given i.p., at 0.5 hr in mice upon subcutaneous pentylenetetrazole seizure; assay type: functional
[20] = test system: Mus musculus; experiment: Mean sleeping time evaluated for CNS study using the pentobarbital-induced narcosis model at a dose of 100 mg/Kg when given i.p., in mice (No. of animals 6)
[21] = test system: Rattus norvegicus; experiment: Effect on GABA level in rat whole brain concentration after 7 days post-treatment at a dose of 30 mg/Kg when given orally; Control 50.5; assay type: functional
[22] = species on record: Rattus norvegicus; experiment: Ex vitro percentage inhibition activity against GABA-T enzyme at a concentration of 1.25 uM after 3 h; assay type: functional
[23] = species on record: Rattus norvegicus; experiment: Ex vitro percentage inhibition activity against GABA-T enzyme at a concentration of 1.25 uM after 6 h; assay type: functional
[24] = test system: Mus musculus; experiment: Post treatment activity score for CNS study using a actophotometer at a dose of 100 mg/Kg after 1 hr when given i.p., in mice (No. of animals 6); Control (24h before) 281
[25] = test system: Mus musculus; experiment: Post treatment activity score for CNS study using a actophotometer at a dose of 100 mg/Kg after 0.5 hr when given i.p., in mice (No. of animals 6); Control (24h before) 281
[26] = test system: Rattus norvegicus; experiment: Enzymatic activity to assess the increase in level of SGPT at a dose of 30 mg/Kg for 14 days when given p.o., in 6 rats; Control 45.0; assay type: functional
[27] = test system: Mus musculus; experiment: Post treatment activity score for CNS study using a actophotometer at a dose of 100 mg/Kg after 0.5 hr when given i.p., in mice (No. of animals 6); Control (24h before) 224
[28] = test system: Mus musculus; experiment: Post treatment activity score for CNS study using a actophotometer at a dose of 100 mg/Kg after 1 hr when given i.p., in mice (No. of animals 6); Control (24h before) 224
[29] = test system: Mus musculus; experiment: Post treatment immobility time for CNS study using Porsolt's swimpool test at a dose of 100 mg/Kg after 1 hr when given i.p., in mice (No. of animals 6); Control (24h before) 176
[30] = test system: Rattus norvegicus; experiment: Enzymatic activity to assess the increase in level of SGOT at a dose of 30 mg/Kg for 14 days when given p.o., in 6 rats; Control 73.1; assay type: functional
[31] = test system: Mus musculus; experiment: Minimum dose required for anticonvulsant activity when given i.p., at 2 hr in mice upon subcutaneous strychnine seizure; assay type: functional
[32] = test system: Rattus norvegicus; experiment: Effective dose required for anticonvulsant activity when given orally at 4 h in rat upon maximal electroshock seizure; assay type: functional; conditions: po
[33] = test system: Rattus norvegicus; experiment: Toxic dose observed for anticonvulsant activity when given orally at 4 h in rat upon neurotoxicity seizure; assay type: functional; conditions: po
[34] = test system: Rattus norvegicus; experiment: Seizure score before administration in rat 1 at dose 130 mg/Kg when given i.p., upon preliminary hippocampal-kindling screen; assay type: functional, Hippocampus
[35] = test system: Rattus norvegicus; experiment: Seizure score before administration in rat 2 at dose 130 mg/Kg when given i.p., upon preliminary hippocampal-kindling screen; assay type: functional, Hippocampus
[36] = molecular target: 4-aminobutyrate aminotransferase, mitochondrial (Rattus norvegicus) (UniProt P50554); experiment: In vitro percentage inhibition activity against GABA-T enzyme at a concentration of 1.25 uM after 4.5 h
[37] = test system: Mus musculus; experiment: Post treatment activity score for CNS study using a actophotometer at a dose of 100 mg/Kg after 0.5 hr when given i.p., in mice (No. of animals 6); Control (24h before) 217
[38] = test system: Rattus norvegicus; experiment: After discharge duration time when before administered in rat 2 at dose 130 mg/Kg when given i.p., upon preliminary hippocampal-kindling screen; Prodrug time 30-39 s; assay type: functional, Hippocampus
[39] = test system: Rattus norvegicus; experiment: Seizure score after administration in rat 2 at dose 130 mg/Kg when given i.p., upon preliminary hippocampal-kindling screen; assay type: functional, Hippocampus
[40] = molecular target: 4-aminobutyrate aminotransferase, mitochondrial (Rattus norvegicus) (UniProt P50554); experiment: In vitro percentage inhibition activity against GABA-T enzyme at a concentration of 1.25 uM after 6 h
[41] = species on record: Rattus norvegicus; experiment: Ex vitro percentage inhibition activity against GABA-T enzyme at a concentration of 2.5 uM after 4.5 h; assay type: functional
[42] = species on record: Rattus norvegicus; experiment: Ex vitro percentage inhibition activity against GABA-T enzyme at a concentration of 2.5 uM after 3 h; assay type: functional
[43] = test system: Rattus norvegicus; experiment: Seizure score after administration in rat 1 at dose 130 mg/Kg when given i.p., upon preliminary hippocampal-kindling screen; assay type: functional, Hippocampus
[44] = test system: Rattus norvegicus; experiment: After discharge duration time when after administered in rat 1 at dose 130 mg/Kg when given i.p., upon preliminary hippocampal-kindling screen; assay type: functional, Hippocampus
[45] = species on record: Rattus norvegicus; experiment: Ex vitro percentage inhibition activity against GABA-T enzyme at a concentration of 2.5 uM after 6 h; assay type: functional
[46] = test system: Mus musculus; experiment: Post treatment activity score for CNS study using a actophotometer at a dose of 100 mg/Kg after 1 hr when given i.p., in mice (No. of animals 6); Control (24h before) 217
[47] = test system: Rattus norvegicus; experiment: After discharge duration time when before administered in rat 1 at dose 130 mg/Kg when given i.p., upon preliminary hippocampal-kindling screen; Prodrug time 26-39 s; assay type: functional, Hippocampus
[48] = test system: Rattus norvegicus; experiment: After discharge duration time when after administered in rat 2 at dose 130 mg/Kg when given i.p., upon preliminary hippocampal-kindling screen; assay type: functional, Hippocampus
[49] = molecular target: 4-aminobutyrate aminotransferase, mitochondrial (Rattus norvegicus) (UniProt P50554); experiment: In vitro percentage inhibition activity against GABA-T enzyme at a concentration of 1.25 uM after 3 h
[50] = test system: Mus musculus; experiment: Post treatment immobility time for CNS study using Porsolt's swimpool test at a dose of 100 mg/Kg after 1 h when given i.p., in mice (No. of animals 6); Control (24h before) 190

4-aminobutyrate aminotransferase, mitochondrial (Rattus norvegicus), sequence (P50554 28-500 limits assumed): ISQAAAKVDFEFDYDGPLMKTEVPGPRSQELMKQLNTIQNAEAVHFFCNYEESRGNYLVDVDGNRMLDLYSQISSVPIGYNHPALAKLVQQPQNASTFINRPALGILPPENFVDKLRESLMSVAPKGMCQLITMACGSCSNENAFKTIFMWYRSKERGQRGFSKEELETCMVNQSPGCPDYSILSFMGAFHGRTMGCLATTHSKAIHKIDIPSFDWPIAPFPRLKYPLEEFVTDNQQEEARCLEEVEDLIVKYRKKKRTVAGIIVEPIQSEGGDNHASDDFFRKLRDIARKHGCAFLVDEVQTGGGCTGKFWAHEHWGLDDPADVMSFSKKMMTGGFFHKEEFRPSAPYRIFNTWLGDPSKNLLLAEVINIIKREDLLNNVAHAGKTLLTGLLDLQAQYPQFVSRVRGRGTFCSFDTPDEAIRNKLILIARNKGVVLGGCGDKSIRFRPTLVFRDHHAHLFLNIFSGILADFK

| Compound | MES [3] | Activity [5] | MES [6] | Activity [8] | Activity [9] | Activity [12] | Activity [13] | PI [16] | Activity [17] | STY seizure [18] | PTZ seizure [19] | Time [20] | Activity [21] | SGPT activity [26] | SGOT activity [30] | STY seizure [31] | ED50 [32] | TD50 [33] | also measured |
| --- | --- | --- | --- | --- | --- | --- | --- | --- | --- | --- | --- | --- | --- | --- | --- | --- | --- | --- | --- |
| Cc1cccc(C)c1NC(=O)N/N=C/c1ccccc1[N+](=O)[O-] | 300 mg/kg | 2 | 300 mg/kg | 84.7 ug/100mg of tissue | 2 | 2 | 2 | >4.3 | 2 | 100 mg/kg | 300 mg/kg | 141 min | 81.6 ug/100mg of tissue |  |  |  |  |  | inhibition [1]: 0%; NT [2]: 300 mg/kg; TD50 [4]: > 100 mg/kg; inhibition [7]: 40%; ED50 [10]: 23.2 mg/kg; Inhibition [11]: 98%; Activity [14]: 190; inhibition [15]: 53%; Inhibition [22]: 0%; Inhibition [23]: 23%; Activity [24]: 177; Activity [25]: 177 |
| CC/C(C)=N\NC(=O)Nc1c(C)cccc1C | 300 mg/kg | 3 | 100 mg/kg |  | 4 | 3 | 1 | >17.2 | 4 | 30 mg/kg | 300 mg/kg | 61 min |  | 49.3 units/mL | 79.6 units/mL | 100 mg/kg | 29 mg/kg | > 500 mg/kg | Activity [27]: 188; Activity [28]: 195; Activity [29]: 199 |
| Cc1cccc(C)c1NC(=O)N/N=C/c1ccccc1O | 300 mg/kg | 4 | 100 mg/kg | 92.1 ug/100mg of tissue | 3 | 4 | 1 | >25.1 | 3 | 30 mg/kg | 300 mg/kg |  | 110 ug/100mg of tissue | 43.3 units/mL | 64.8 units/mL | 100 mg/kg | 19.8 mg/kg | > 500 mg/kg | Score [34]: 5; Score [35]: 5; inhibition [36]: 0%; Activity [37]: 155; ADD [38]: 39 s; Score [39]: 1; inhibition [40]: 9%; Inhibition [41]: 43%; Inhibition [42]: 90%; Score [43]: 1; ADD [44]: 59 s; Inhibition [45]: 0%; Activity [46]: 135; ADD [47]: 39 s; ADD [48]: 25 s; inhibition [49]: 58%; Activity [50]: 191 |
